# Measured values: patent US10668067B2, “Pyridine sulfonamides” (AMGEN INC., priority 2016, dated 2020)
# Target: human Nav1.7 (Homo sapiens (Human), UniProt Q15858)
# Experiment: Nav 1.7 In Vitro PX Assay (PatchXpress whole cell voltage clamp)
# Type: cell-based
# Details: in-vitro Nav 1.7 PX data
# Method: HEK 293 cells stably transfected with human Nav1.7 were recorded in whole cell voltage clamp mode with the PatchXpress automated electrophysiology system (Molecular Devices, LLC, Sunnyvale, Calif.). Compound effects were measured on a partially inactivated state of the sodium channel. Cells were clamped to a holding potential yielding 20 to 50% inactivation. To elicit sodium current, channels were activated by pulsing to −10 mV for 20 msec. This voltage protocol was repeated at a rate of 0.1 Hz throughout the experiment. A single concentration of test compound was applied to cells for a duration of 3 minutes. Peak sodium current was measured at the end of the compound addition period to determine percent inhibition. Three to five cells were tested per concentration, and IC50 curves were fitted to percent inhibition as a function of concentration.
# Sequence of human Nav1.7 (Q15858 whole entry): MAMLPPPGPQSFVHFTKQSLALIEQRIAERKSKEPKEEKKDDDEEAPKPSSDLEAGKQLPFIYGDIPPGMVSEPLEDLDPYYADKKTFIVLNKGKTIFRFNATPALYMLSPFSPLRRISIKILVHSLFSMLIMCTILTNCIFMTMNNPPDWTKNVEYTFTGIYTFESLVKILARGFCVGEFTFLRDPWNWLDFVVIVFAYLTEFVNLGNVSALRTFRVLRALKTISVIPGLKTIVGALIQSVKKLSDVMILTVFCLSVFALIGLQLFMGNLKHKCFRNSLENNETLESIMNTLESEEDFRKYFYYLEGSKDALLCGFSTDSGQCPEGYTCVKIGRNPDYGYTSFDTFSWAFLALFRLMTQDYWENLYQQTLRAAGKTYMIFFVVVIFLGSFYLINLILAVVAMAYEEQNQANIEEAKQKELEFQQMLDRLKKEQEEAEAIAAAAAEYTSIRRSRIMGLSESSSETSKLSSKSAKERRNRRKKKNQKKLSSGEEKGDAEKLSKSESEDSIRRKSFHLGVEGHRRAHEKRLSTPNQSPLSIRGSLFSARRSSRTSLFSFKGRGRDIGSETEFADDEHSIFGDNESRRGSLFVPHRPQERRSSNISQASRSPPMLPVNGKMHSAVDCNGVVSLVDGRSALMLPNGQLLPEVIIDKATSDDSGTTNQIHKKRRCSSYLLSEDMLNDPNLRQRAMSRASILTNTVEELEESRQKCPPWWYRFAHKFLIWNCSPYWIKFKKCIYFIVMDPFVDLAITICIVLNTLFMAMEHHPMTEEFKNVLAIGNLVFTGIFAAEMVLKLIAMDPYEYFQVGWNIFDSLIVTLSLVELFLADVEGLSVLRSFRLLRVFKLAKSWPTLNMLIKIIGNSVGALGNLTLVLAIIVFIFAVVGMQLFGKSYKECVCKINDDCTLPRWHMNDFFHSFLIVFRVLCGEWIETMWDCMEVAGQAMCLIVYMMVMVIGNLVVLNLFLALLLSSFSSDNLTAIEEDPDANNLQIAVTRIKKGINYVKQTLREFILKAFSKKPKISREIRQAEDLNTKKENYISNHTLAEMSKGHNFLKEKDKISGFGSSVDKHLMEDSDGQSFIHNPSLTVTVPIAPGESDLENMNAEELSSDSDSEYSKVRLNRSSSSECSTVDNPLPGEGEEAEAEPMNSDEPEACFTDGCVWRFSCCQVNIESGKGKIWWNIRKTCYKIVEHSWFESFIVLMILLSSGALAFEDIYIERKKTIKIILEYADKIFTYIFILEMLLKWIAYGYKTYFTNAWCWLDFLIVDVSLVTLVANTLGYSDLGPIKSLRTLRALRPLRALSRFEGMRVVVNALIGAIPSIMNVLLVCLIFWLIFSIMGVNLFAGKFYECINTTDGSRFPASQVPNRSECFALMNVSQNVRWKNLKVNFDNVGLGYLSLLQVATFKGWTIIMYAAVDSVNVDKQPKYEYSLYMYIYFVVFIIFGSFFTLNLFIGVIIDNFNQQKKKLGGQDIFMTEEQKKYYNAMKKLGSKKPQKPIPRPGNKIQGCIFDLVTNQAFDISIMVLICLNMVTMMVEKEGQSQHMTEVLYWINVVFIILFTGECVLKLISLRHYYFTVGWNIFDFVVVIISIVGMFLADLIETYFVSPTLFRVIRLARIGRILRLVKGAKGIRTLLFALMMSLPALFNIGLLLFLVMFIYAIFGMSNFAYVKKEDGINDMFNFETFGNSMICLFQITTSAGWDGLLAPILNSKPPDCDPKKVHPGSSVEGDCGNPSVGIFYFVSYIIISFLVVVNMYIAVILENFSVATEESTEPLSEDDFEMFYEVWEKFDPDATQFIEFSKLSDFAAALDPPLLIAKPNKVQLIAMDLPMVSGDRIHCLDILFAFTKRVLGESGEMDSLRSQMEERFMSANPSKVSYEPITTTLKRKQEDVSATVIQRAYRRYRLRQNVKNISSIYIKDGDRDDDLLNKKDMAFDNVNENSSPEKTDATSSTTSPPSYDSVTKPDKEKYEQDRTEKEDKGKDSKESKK
row,SMILES,IC50 [nM]
1,"CNC(=O)N(c1ccc(S(=O)(=O)Nc2ccon2)cn1)c1cc(F)c(-c2ccc(F)c(F)c2)cc1OC [Example 1-22, N-3-isoxazolyl-6-((methylcarbamoyl)(2,3′,4′-trifluoro-5-methoxy-4-biphenylyl)amino)-3-pyridinesulfonamide]",199
2,"CNC(=O)N(c1ccc(S(=O)(=O)Nc2ccon2)cn1)c1cc(Cl)c(-c2cc(F)c(F)c(OC)c2)cc1OC [Example 1-68, 6-((2-chloro-3′,4′-difluoro-5,5′-dimethoxy-4-biphenylyl)(methylcarbamoyl)amino)-N-3-isoxazolyl-3-pyridinesulfonamide]",23
3,"CNC(=O)N(c1ccc(S(=O)(=O)Nc2ccon2)cn1)c1cc(Cl)c(-c2ccc(F)c(OCC(F)(F)F)c2)cc1OC [Example 1-57, 6-((2-chloro-4′-fluoro-5-methoxy-3′-(2,2,2-trifluoroethoxy)-4-biphenylyl)(methylcarbamoyl)amino)-N-3-isoxazolyl-3-pyridinesulfonamide]",24
4,"CNC(=O)N(c1ccc(S(=O)(=O)Nc2ccon2)cn1)c1cc(Cl)c(-c2ccc(F)c(Cl)c2)cc1OC [Example 1-60, 6-((2,3′-dichloro-4′-fluoro-5-methoxy-4-biphenylyl)(methylcarbamoyl)amino)-N-3-isoxazolyl-3-pyridinesulfonamide]",19
5,"CNC(=O)N(c1ccc(S(=O)(=O)Nc2ccon2)cn1)c1cc(Cl)c(-c2ccc(Cl)cc2)cc1OC [Example 1-70, 6-((2,4′-dichloro-5-methoxy-4-biphenylyl)(methylcarbamoyl)amino)-N-3-isoxazolyl-3-pyridinesulfonamide]",52
6,"CNC(=O)N(c1ccc(S(=O)(=O)Nc2ccon2)cn1)c1cc(F)c(-c2ccc(F)c(C(F)(F)F)c2)cc1OC [Example 1-26, 6-((2,4′-difluoro-5-methoxy-3′-(trifluoromethyl)-4-biphenylyl)(methylcarbamoyl)amino)-N-3-isoxazolyl-3-pyridinesulfonamide]",12
7,"CNC(=O)N(c1ccc(S(=O)(=O)Nc2ncccn2)cn1)c1cc(Cl)c(-c2cc(OC)cc(OC)c2)cc1OC [Example 1-79, 6-((2-chloro-3′,5,5′-trimethoxy-4-biphenylyl)(methylcarbamoyl)amino)-N-2-pyrimidinyl-3-pyridinesulfonamide]",166
8,"CNC(=O)N(c1ccc(S(=O)(=O)Nc2ccon2)cn1)c1cc(Cl)c(-c2ccc(C)c(Cl)c2)cc1OC [Example 1-61, 6-((2,3′-dichloro-5-methoxy-4′-methyl-4-biphenylyl)(methylcarbamoyl)amino)-N-3-isoxazolyl-3-pyridinesulfonamide]",20
9,"CNC(=O)N(c1ccc(S(=O)(=O)Nc2ncccn2)cn1)c1cc(F)c(-c2ccc(F)c(OCC(F)(F)F)c2)cc1OC [Example 1-88, 6-((2,4′-difluoro-5-methoxy-3′-(2,2,2-trifluoroethoxy)-4-biphenylyl)(methylcarbamoyl)amino)-N-2-pyrimidinyl-3-pyridinesulfonamide]",40
10,"CNC(=O)N(c1ccc(S(=O)(=O)Nc2ccon2)cn1)c1cc(Cl)c(-c2cccc(OC(F)(F)F)c2)cc1OC [Example 1-39, 6-((2-chloro-5-methoxy-3′-(trifluoromethoxy)-4-biphenylyl)(methylcarbamoyl)amino)-N-3-isoxazolyl-3-pyridinesulfonamide]",11
11,"CNC(=O)N(c1ccc(S(=O)(=O)Nc2ccon2)cn1)c1cc(Cl)c(-c2cc(Cl)ccc2C)cc1OC [Example 1-34, 6-((2,5′-dichloro-5-methoxy-2′-methyl-4-biphenylyl)(methylcarbamoyl)amino)-N-3-isoxazolyl-3-pyridinesulfonamide]",27
12,"CNC(=O)N(c1ccc(S(=O)(=O)Nc2ccon2)cn1)c1cc(Cl)c(-c2ccc(Cl)c(C)c2)cc1OC [Example 1-29, 6-((2,4′-dichloro-5-methoxy-3′-methyl-4-biphenylyl)(methylcarbamoyl)amino)-N-3-isoxazolyl-3-pyridinesulfonamide]",20
13,"CNC(=O)N(c1ccc(S(=O)(=O)Nc2ncccn2)cn1)c1cc(Cl)c(-c2ccc(Cl)c(C#N)c2)cc1OC [Example 1-75, 6-((2,4′-dichloro-3′-cyano-5-methoxy-4-biphenylyl)(methylcarbamoyl)amino)-N-2-pyrimidinyl-3-pyridinesulfonamide]",106
14,"CNC(=O)N(c1ccc(S(=O)(=O)Nc2ccon2)cn1)c1cc(F)c(-c2cc(OC)c(F)c(OC)c2)cc1OC [Example 1-23, 6-((2,4′-difluoro-3′,5,5′-trimethoxy-4-biphenylyl)(methylcarbamoyl)amino)-N-3-isoxazolyl-3-pyridinesulfonamide]",151
15,"CNC(=O)N(c1ccc(S(=O)(=O)Nc2ccon2)cn1)c1cc(F)c(CCC(F)(F)F)cc1OC [Example 8, 6-((5-fluoro-2-methoxy-4-(3,3,3-trifluoropropyl)phenyl)(methylcarbamoyl)amino)-N-3-isoxazolyl-3-pyridinesulfonamide]",849
16,"CNC(=O)N(c1ccc(S(=O)(=O)Nc2ccon2)cn1)c1cc(F)c(-c2cc(Cl)cc(OC)c2)cc1OC [Example 1-6, 6-((3′-chloro-2-fluoro-5,5′-dimethoxy-4-biphenylyl)(methylcarbamoyl)amino)-N-3-isoxazolyl-3-pyridinesulfonamide]",51
17,"CNC(=O)N(c1ccc(S(=O)(=O)Nc2ccon2)cn1)c1cc(Cl)c(-c2ccc(C)c(F)c2)cc1OC [Example 1-62, 6-((2-chloro-3′-fluoro-5-methoxy-4′-methyl-4-biphenylyl)(methylcarbamoyl)amino)-N-3-isoxazolyl-3-pyridinesulfonamide]",64
18,"CNC(=O)N(c1ccc(S(=O)(=O)Nc2ncccn2)cn1)c1cc(F)c(-c2cccc(OC(F)(F)F)c2)cc1OC [Example 1-84, 6-((2-fluoro-5-methoxy-3′-(trifluoromethoxy)-4-biphenylyl)(methylcarbamoyl)amino)-N-2-pyrimidinyl-3-pyridinesulfonamide]",62
19,"CNC(=O)N(c1ccc(S(=O)(=O)Nc2ncccn2)cn1)c1cc(F)c(-c2ccc(Cl)c(Cl)c2)cc1OC [Example 1-83, 6-((3′,4′-dichloro-2-fluoro-5-methoxy-4-biphenylyl)(methylcarbamoyl)amino)-N-2-pyrimidinyl-3-pyridinesulfonamide]",32
20,"CNC(=O)N(c1ccc(S(=O)(=O)Nc2ccon2)cn1)c1cc(Cl)c(-c2ccc(F)c(C)c2)cc1OC [Example 1-28, 6-((2-chloro-4′-fluoro-5-methoxy-3′-methyl-4-biphenylyl)(methylcarbamoyl)amino)-N-3-isoxazolyl-3-pyridinesulfonamide]",58
21,"CNC(=O)N(c1ccc(S(=O)(=O)Nc2ccon2)cn1)c1cc(Cl)c(-c2ccc(Cl)c(F)c2)cc1OC [Example 1-63, 6-((2,4′-dichloro-3′-fluoro-5-methoxy-4-biphenylyl)(methylcarbamoyl)amino)-N-3-isoxazolyl-3-pyridinesulfonamide]",28

# Second part, the compound after the results:
row,IC50 [nM],SMILES
1,621,"CNC(=O)N(c1ccc(S(=O)(=O)Nc2nocc2C)cn1)c1cc(F)c(-c2ccc(F)c(OCC(F)(F)F)c2)cc1OC [Example 2-14, 6-(1-(2,4′-difluoro-5-methoxy-3′-(2,2,2-trifluoroethoxy)-[1,1′-biphenyl]-4-yl)-3-methylureido)-N-(4-methylisoxazol-3-yl)pyridine-3-sulfonamide]"
2,461,"CNC(=O)N(c1ccc(S(=O)(=O)Nc2ccon2)cn1)c1cc(-c2cc(Cl)cc(OC)c2)ccc1OC [Example 4-1, 6-((3′-chloro-4,5′-dimethoxy-3-biphenylyl)(methylcarbamoyl)amino)-N-3-isoxazolyl-3-pyridinesulfonamide]"
3,8,"CNC(=O)N(c1ccc(S(=O)(=O)Nc2ncccn2)cn1)c1cc(Cl)c(-c2ccc(F)c(OC(F)(F)F)c2)cc1OC [Example 2-10, 6-((2-chloro-4′-fluoro-5-methoxy-3′-(trifluoromethoxy)-4-biphenylyl)(methylcarbamoyl)amino)-N-2-pyrimidinyl-3-pyridinesulfonamide]"
4,7,"COc1cc(-c2cc(OC)c(N(C(N)=O)c3ccc(S(=O)(=O)Nc4ccon4)cn3)cc2Cl)cc(C(F)(F)F)c1 [Example 5-4, 6-(carbamoyl(2-chloro-3′,5-dimethoxy-5′-(trifluoromethyl)-4-biphenylyl)amino)-N-3-isoxazolyl-3-pyridinesulfonamide]"
5,63.5,"CNC(=O)N(c1ccc(S(=O)(=O)Nc2nocc2C)cn1)c1cc(F)c(-c2ccc(F)c(OC(F)(F)F)c2)cc1OC [Example 2-12, 6-(1-(2,4′-difluoro-5-methoxy-3′-(trifluoromethoxy)-[1,1′-biphenyl]-4-yl)-3-methylureido)-N-(4-methylisoxazol-3-yl)pyridine-3-sulfonamide]"
6,16,"COc1cc(-c2cccc(OCC(F)(F)F)c2)c(Cl)cc1N(C(N)=O)c1ccc(S(=O)(=O)Nc2ccon2)cn1 [Example 5-5, 6-(carbamoyl(2-chloro-5-methoxy-3′-(2,2,2-trifluoroethoxy)-4-biphenylyl)amino)-N-3-isoxazolyl-3-pyridinesulfonamide]"
7,187,"CNC(=O)N(c1ccc(S(=O)(=O)Nc2ccon2)cn1)c1cc(-c2cccc(C(F)(F)F)c2)ccc1OC [Example 4-2, N-3-isoxazolyl-6-((4-methoxy-3′-(trifluoromethyl)-3-biphenylyl)(methylcarbamoyl)amino)-3-pyridinesulfonamide]"
8,7,"COc1cc(-c2cccc(C(F)(F)F)c2)c(Cl)cc1N(C(N)=O)c1ccc(S(=O)(=O)Nc2ccon2)cn1 [Example 5-1, 6-(1-(2-chloro-5-methoxy-3′-(trifluoromethyl)-[1,1′-biphenyl]-4-yl)ureido)-N-(isoxazol-3-yl)pyridine-3-sulfonamide]"
